The target in data set [1] is Keap1/Nrf2 (Homo sapiens, UniProt Q14145). Description: Inhibition of Keap1-Nrf2 (unknown origin) interaction measured after 60 mins by Fluorescence polarization assay. It counts as protein assay.
A short description of data set [2]: Cytotoxicity against mouse peritoneal macrophages assessed as reduction in cell viability measured after 24 hrs by CCK8 assay. It counts as cell-based, Peritoneal macrophage. A general note: Tetrazolium assays rely on reduction of a dye to a coloured formazan, in cell work by metabolically active cells.
Data set [3] concerns the target T1, Kelch-like ECH-associated protein 1/Nuclear factor erythroid 2-related factor 2 (Mus musculus) (UniProt Q60795+Q9Z2X8). The data set can be described thus: Inhibition of Keap1-Nrf2 interaction in mouse peritoneal macrophages assessed as increase in nuclear translocation of Nrf2 by measuring increase in nuclear Nrf2 level at 10 uM measured after 3 to 6 hrs by Western blot analysis. Particulars: Peritoneal macrophage, Nucleus, time 3-6 hrs. It counts as subcellular. (In general: Immunoblotting shows a protein as a band on a membrane.)

In data set [4] the test system is Peritoneal macrophage. The data set can be described thus: Antiinflammatory activity against mouse peritoneal macrophages assessed as inhibition of LPS-induced NO production at 10 uM measured after 24 hrs by Griess assay. Type of data set: functional, cell-based.
For data set [5], the system named is Peritoneal macrophage. Description: Antiinflammatory activity against mouse peritoneal macrophages assessed as reduction in LPS-induced TNFalpha production at 10 uM measured after 24 hrs by ELISA. Type of data set: functional, cell-based. Background: In an ELISA, binding on a coated surface is turned into a signal by an enzyme label.
Data set [6] deals with T1, Kelch-like ECH-associated protein 1/Nuclear factor erythroid 2-related factor 2 (Mus musculus). The data set can be described thus: Inhibition of Keap1-Nrf2 interaction in mouse peritoneal macrophages assessed as increase in nuclear translocation of Nrf2 by measuring decrease in cytosolic Nrf2 level at 10 uM measured after 3 to 6 hrs by Western blot analysis. It counts as subcellular. Particulars: Peritoneal macrophage, Cytosol, time 3-6 hrs.

The target is the same in data set [7]. Description: Inhibition of Keap1-Nrf2 interaction in mouse peritoneal macrophages assessed as upregulation of NQO1 protein expression at 10 uM by Western blot analysis. It counts as tissue-based. Particulars: Peritoneal macrophage, time 1-6 hrs, TDE = time-dependent effect.
The target is the same in data set [8]. The data set can be described thus: Inhibition of Keap1-Nrf2 interaction in mouse peritoneal macrophages assessed as upregulation of HO-1 protein expression at 10 uM by Western blot analysis. It counts as tissue-based. The settings on record: Peritoneal macrophage, time 1-6 hrs, TDE = time-dependent effect.
Data set [9] has as its system Peritoneal macrophage. The data set can be described thus: Antiinflammatory activity against mouse peritoneal macrophages assessed as inhibition of LPS-stimulated ROS production at 10 uM incubated for 6 hrs by DCFH-DA staining based fluorescence analysis. Type of data set: functional, cell-based.
Data set [10] deals with Mus musculus. Description: In vivo inhibition of Keap1-Nrf2 interaction in LPS-induced acute lung injury C57BL/6 mouse model assessed as increase in Nrf2 nuclear translocation in lungs by measuring increase in nuclear Nrf2 level treated intraperitoneally at 0.5 hrs before LPS stimulation and measured after 6 hrs by western blot analysis. Type of data set: functional, organism-based. The settings on record: dose 5-20 mg/kg, time 6.5 hrs.

Data set [11] deals with Mus musculus. The data set can be described thus: Anti-inflammatory activity against LPS-induced acute lung injury C57BL/6 mouse model assessed as reduction in LPS-induced IL-1 beta secretion in BALF at 5 to 20 mg/kg, ip treated 0.5 hrs before LPS stimulation and measured after 6 hrs by ELISA. The settings on record: dose 5-20 mg/kg, time 6.5 hrs. Type of data set: functional, organism-based.

In data set [12] the test system is Mus musculus. The data set can be described thus: Anti-inflammatory activity against LPS-induced acute lung injury C57BL/6 mouse model assessed as reduction in LPS-induced TNF-alpha secretion in BALF at 5 to 20 mg/kg, ip treated 0.5 hrs before LPS stimulation and measured after 6 hrs by ELISA. It counts as functional, organism-based. Particulars: dose 5-20 mg/kg, time 6.5 hrs.

Data set [13] deals with Mus musculus. The data set can be described thus: Anti-inflammatory activity against LPS-induced acute lung injury C57BL/6 mouse model assessed as reduction in LPS-induced IL-6 mRNA expression in lungs at 5 to 20 mg/kg, ip treated 0.5 hrs before LPS stimulation and measured after 6 hrs by RT-PCR analysis. It counts as functional, organism-based. The settings on record: dose 5-20 mg/kg, time 6.5 hrs.

The test system of data set [14] is Mus musculus. The data set can be described thus: Antiinflammatory activity against LPS-induced acute lung injury C57BL/6 mouse model assessed as intact alveolar structure with reduced inflammatory cells infiltration in lungs at 5 to 20 mg/kg, ip treated 0.5 hrs before LPS stimulation and measured after 6 hrs by hematoxylin and eosin staining based microscopic analysis. Type of data set: functional, organism-based. Particulars: dose 5-20 mg/kg, time 6.5 hrs.

Data set [15] deals with Mus musculus. Description: Antiinflammatory activity against LPS-induced acute lung injury C57BL/6 mouse model assessed as mild alveolar thickening with less bleeding points/congestion in lungs at 5 to 20 mg/kg, ip treated 0.5 hrs before LPS stimulation and measured after 6 hrs by hematoxylin and eosin staining based microscopic analysis. It counts as functional, organism-based. Particulars: dose 5-20 mg/kg, time 6.5 hrs.

Data set [16] concerns Mus musculus. Description: Anti-inflammatory activity against LPS-induced acute lung injury C57BL/6 mouse model assessed as reduction in LPS-induced IL-1 beta mRNA expression in lungs at 5 to 20 mg/kg, ip treated 0.5 hrs before LPS stimulation and measured after 6 hrs by RT-PCR analysis. The settings on record: dose 5-20 mg/kg, time 6.5 hrs. Type of data set: functional, organism-based.

For data set [17], the system named is Mus musculus. The data set can be described thus: Anti-inflammatory activity against LPS-induced acute lung injury C57BL/6 mouse model assessed as reduction in LPS-induced TNF-alpha mRNA expression in lungs at 5 to 20 mg/kg, ip treated 0.5 hrs before LPS stimulation and measured after 6 hrs by RT-PCR analysis. It counts as functional, organism-based. Particulars: dose 5-20 mg/kg, time 6.5 hrs.

The subject of data set [18] is Mus musculus. Description: In vivo inhibition of Keap1-Nrf2 interaction in LPS-induced acute lung injury C57BL/6 mouse model assessed as increase in Nrf2 nuclear translocation in lungs by measuring decrease in cytosolic Nrf2 level treated intraperitoneally at 0.5 hrs before LPS stimulation and measured after 6 hrs by western blot analysis. It counts as functional, organism-based. Particulars: dose 5-20 mg/kg, time 6.5 hrs.

The source made the active and inactive calls. No cut-off for these calls is given here. Bounds are passed on as bounds.

This note sets out measurements from ChEMBL document CHEMBL4823275, “Structure-based molecular hybridization design of Keap1-Nrf2 inhibitors as novel protective agents of acute lung injury” (Eur J Med Chem, 2021).

As usually defined, the Kd is a measure of binding affinity in units of concentration. Higher therefore signals weaker binding. A word on the CC50: it is the concentration giving 50% cytotoxicity.

Chain of Keap1/Nrf2 (Q16236 whole entry): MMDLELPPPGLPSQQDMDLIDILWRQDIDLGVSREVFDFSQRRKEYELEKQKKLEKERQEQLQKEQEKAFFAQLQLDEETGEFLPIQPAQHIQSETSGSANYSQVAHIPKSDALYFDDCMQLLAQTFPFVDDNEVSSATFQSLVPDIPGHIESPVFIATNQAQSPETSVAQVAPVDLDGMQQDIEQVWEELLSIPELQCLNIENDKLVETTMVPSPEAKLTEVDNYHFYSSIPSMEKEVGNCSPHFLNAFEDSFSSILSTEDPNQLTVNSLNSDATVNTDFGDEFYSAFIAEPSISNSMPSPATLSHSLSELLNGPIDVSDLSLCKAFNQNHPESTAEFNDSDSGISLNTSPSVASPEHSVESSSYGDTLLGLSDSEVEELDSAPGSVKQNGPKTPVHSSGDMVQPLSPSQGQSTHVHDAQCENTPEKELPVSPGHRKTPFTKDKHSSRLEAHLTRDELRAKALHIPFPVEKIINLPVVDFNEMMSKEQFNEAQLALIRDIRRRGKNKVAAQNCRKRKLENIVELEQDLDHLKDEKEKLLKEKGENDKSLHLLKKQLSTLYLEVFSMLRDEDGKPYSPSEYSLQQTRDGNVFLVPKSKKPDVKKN
Chain of Keap1/Nrf2 (Q14145 whole entry): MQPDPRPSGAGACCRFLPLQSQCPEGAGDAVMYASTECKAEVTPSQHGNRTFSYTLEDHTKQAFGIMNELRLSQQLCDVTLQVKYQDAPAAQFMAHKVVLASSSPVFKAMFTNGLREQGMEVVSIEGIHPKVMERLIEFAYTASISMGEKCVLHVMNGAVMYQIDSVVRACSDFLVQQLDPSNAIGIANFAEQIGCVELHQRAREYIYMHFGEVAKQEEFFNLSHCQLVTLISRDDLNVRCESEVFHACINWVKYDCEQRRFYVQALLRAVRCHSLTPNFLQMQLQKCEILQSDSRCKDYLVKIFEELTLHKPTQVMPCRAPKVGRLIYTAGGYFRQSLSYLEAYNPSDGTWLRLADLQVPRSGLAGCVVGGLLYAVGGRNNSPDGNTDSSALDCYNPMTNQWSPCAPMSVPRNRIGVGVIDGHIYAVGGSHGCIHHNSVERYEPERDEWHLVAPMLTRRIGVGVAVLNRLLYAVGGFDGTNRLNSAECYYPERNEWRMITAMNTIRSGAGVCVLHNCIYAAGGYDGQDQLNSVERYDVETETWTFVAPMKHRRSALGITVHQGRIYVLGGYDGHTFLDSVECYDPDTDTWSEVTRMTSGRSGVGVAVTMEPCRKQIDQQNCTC
T1 sequence (Q60795 whole entry, looked up): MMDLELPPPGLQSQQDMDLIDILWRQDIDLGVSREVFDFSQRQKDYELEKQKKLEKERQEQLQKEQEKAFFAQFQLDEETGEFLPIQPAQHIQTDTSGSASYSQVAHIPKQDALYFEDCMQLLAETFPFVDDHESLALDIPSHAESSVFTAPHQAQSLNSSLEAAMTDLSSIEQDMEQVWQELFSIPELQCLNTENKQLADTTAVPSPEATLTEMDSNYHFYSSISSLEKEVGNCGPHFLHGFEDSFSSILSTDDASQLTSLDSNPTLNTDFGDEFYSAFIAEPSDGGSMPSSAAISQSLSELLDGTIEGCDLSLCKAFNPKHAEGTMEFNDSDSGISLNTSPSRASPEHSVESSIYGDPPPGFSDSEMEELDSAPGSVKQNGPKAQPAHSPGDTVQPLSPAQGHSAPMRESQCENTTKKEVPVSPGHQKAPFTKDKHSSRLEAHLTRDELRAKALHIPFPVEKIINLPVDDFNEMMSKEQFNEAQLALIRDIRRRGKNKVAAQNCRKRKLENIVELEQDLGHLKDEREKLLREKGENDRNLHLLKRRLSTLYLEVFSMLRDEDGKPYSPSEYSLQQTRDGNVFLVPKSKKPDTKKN
T1 sequence (Q9Z2X8 whole entry, looked up): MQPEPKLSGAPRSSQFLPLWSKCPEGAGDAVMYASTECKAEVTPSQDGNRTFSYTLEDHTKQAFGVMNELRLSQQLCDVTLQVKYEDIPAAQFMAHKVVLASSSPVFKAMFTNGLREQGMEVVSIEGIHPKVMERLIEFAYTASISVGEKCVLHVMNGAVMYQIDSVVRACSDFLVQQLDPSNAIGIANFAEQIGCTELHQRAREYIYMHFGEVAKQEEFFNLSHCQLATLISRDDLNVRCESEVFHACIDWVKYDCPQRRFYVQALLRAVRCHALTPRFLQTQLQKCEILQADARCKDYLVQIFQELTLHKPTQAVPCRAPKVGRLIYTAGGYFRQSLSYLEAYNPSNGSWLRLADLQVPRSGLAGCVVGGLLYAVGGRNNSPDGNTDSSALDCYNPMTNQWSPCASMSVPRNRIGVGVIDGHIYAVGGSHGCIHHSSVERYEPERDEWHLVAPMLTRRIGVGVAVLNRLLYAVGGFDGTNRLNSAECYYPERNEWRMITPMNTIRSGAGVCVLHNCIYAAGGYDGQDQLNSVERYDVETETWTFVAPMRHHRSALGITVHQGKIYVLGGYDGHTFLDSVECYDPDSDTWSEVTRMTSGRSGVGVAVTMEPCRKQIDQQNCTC

`COc1ccc(S(=O)(=O)N(CC(N)=O)c2ccc(N(CC(N)=O)S(=O)(=O)c3ccc(S(=O)(=O)CCCCN=C=S)cc3)c3ccccc23)cc1`: the Kd in data set [1] is > 10 µM. In addition, in [2], the CC50 at 24 h is > 10 µM.
Turning to `COc1ccc(S(=O)(=O)N(CC(N)=O)c2ccc(N(CC(N)=O)S(=O)(=O)c3ccc(S(=O)(=O)CCCCCN=C=S)cc3)c3ccccc23)cc1`, the Kd in [1] was > 10 µM. In addition, the CC50 at 24 h in [2] is > 10 µM.
In the case of `C[S+]([O-])CCCCN=C=S` (centres undefined) [SULFORAPHANE], the inhibition entry in data set [3] and in data set [6] was “Active” throughout. Further, the result in data set [4], in data set [5] and in data set [9] was Active. Moreover, in [2], the CC50 at 24 h is > 10 µM. For the same compound, the inhibition entry in data set [7] and in [8] was “Tde” throughout.
With `COc1ccc(S(=O)(=O)N(CC(N)=O)c2ccc(N(CC(N)=O)S(=O)(=O)c3ccc(S(=O)(=O)CCCN=C=S)cc3)c3ccccc23)cc1`, the equilibrium dissociation constant (Kd) in data set [1] was > 10 µM. The CC50 at 24 h in data set [2] is > 10 µM.
`COc1ccc(S(=O)(=O)N(CC(N)=O)c2ccc(N(CC(N)=O)S(=O)(=O)c3ccc(N=C=S)cc3)c3ccccc23)cc1` gave a Kd in data set [1] of 0.106 µM. Besides, the outcome in data set [4], in data set [5] and in data set [9] was Active. The 50% cytotoxic concentration (CC50) at 24 h in [2] is > 10 µM.
In the case of `COc1ccc(S(=O)(=O)N(CC(N)=O)c2ccc(N(CC(N)=O)S(=O)(=O)c3ccc(SCCOCCOCCOCCN=C=S)cc3)c3ccccc23)cc1`, in [1], the Kd was > 10 µM. Moreover, the CC50 at 24 h in data set [2] was > 10 µM.
Turning to `COc1ccc(S(=O)(=O)N(CC(N)=O)c2ccc(N(CC(N)=O)S(=O)(=O)c3ccc([S+]([O-])CCOCCOCCOCCN=C=S)cc3)c3ccccc23)cc1` (centres undefined), the Kd in [1] was > 10 µM. Moreover, the CC50 at 24 h in data set [2] is > 10 µM.
`COc1ccc(S(=O)(=O)N(CC(N)=O)c2ccc(N(CC(N)=O)S(=O)(=O)c3ccc(SCCOCCOCCN=C=S)cc3)c3ccccc23)cc1`: the Kd in [1] was > 10 µM. In addition, the cytotoxic concentration (CC50) at 24 h in data set [2] was > 10 µM.
Consider `COc1ccc(S(=O)(=O)N(CC(N)=O)c2ccc(N(CC(N)=O)S(=O)(=O)c3ccc([S+]([O-])CCN=C=S)cc3)c3ccccc23)cc1` (centres undefined), for which the affinity in data set [1], expressed as Kd, was 1.49 µM. Also, the CC50 at 24 h in data set [2] was > 10 µM.
Taken in the same sequence, the figures for `COc1ccc(S(=O)(=O)N(CC(N)=O)c2ccc(N(CC(N)=O)S(=O)(=O)c3ccc(SCCN=C=S)cc3)c3ccccc23)cc1` were 3.5 µM and > 10 µM.
As to `COc1ccc(S(=O)(=O)N(CC(N)=O)c2ccc(N(CC(N)=O)S(=O)(=O)c3ccc(SCCCN=C=S)cc3)c3ccccc23)cc1`, the Kd in data set [1] was > 10 µM. In data set [2], the 50% cytotoxic concentration (CC50) at 24 h was > 10 µM.
In turn, `COc1ccc(S(=O)(=O)N(CC(N)=O)c2ccc(N(CC(N)=O)S(=O)(=O)c3ccc(S(=O)(=O)CCOCCN=C=S)cc3)c3ccccc23)cc1` came in with a Kd in data set [1] of 2.3 µM. The CC50 at 24 h in data set [2] was > 10 µM.
Consider `COc1ccc(S(=O)(=O)N(CC(N)=O)c2ccc(N(CC(N)=O)S(=O)(=O)c3ccc(SCCOCCN=C=S)cc3)c3ccccc23)cc1`, for which the Kd in [1] is 8.51 µM. The CC50 at 24 h in data set [2] was > 10 µM.
In the same order, the values of `COc1ccc(S(=O)(=O)N(CC(N)=O)c2ccc(N(CC(N)=O)S(=O)(=O)c3ccc(S(=O)(=O)CCOCCOCCOCCN=C=S)cc3)c3ccccc23)cc1` are > 10 µM and > 10 µM.
`COc1ccc(S(=O)(=O)N(CC(N)=O)c2ccc(N(CC(N)=O)S(=O)(=O)c3ccc([S+]([O-])CCCN=C=S)cc3)c3ccccc23)cc1` (centres undefined) gave a Kd in data set [1] of 0.455 µM. Also, the inhibition entry in data set [10] was “Dose-Dependent Effect”; in [7], “Tde”; in data set [8], “Tde”; in data set [18], “Dose-Dependent Effect”. Further, the inhibition result in data set [3] and in data set [6] was “Active” throughout. Further, the result in data set [11], in data set [12], in [4], in data set [5], in data set [13] and in data set [14] was Active. Further, the result in data set [15], in data set [16], in data set [17] and in data set [9] was Active. In addition, in data set [2], the half-maximal cytotoxic concentration (CC50) at 24 h was > 10 µM.
In the case of `COc1ccc(S(=O)(=O)N(CC(N)=O)c2ccc(N(CC(N)=O)S(=O)(=O)c3ccc([S+]([O-])CCCCCN=C=S)cc3)c3ccccc23)cc1` (centres undefined), in data set [1], binding was characterised by a dissociation constant (Kd) of 1.83 µM. The CC50 at 24 h in [2] is > 10 µM.
As to `COc1ccc(S(=O)(=O)N(CC(N)=O)c2ccc(N(CC(N)=O)S(=O)(=O)c3ccc([S+]([O-])CCOCCOCCN=C=S)cc3)c3ccccc23)cc1` (centres undefined), binding in data set [1] was put at a Kd of 1.09 µM. The CC50 at 24 h in data set [2] was > 10 µM.
In the same order, the values of `COc1ccc(S(=O)(=O)N(CC(N)=O)c2ccc(N(CC(N)=O)S(=O)(=O)c3ccc(S(=O)(=O)CCOCCOCCN=C=S)cc3)c3ccccc23)cc1` are 1.22 µM and > 10 µM.
Take `COc1ccc(S(=O)(=O)N(CC(N)=O)c2ccc(N(CC(N)=O)S(=O)(=O)c3ccc(SCCCCCN=C=S)cc3)c3ccccc23)cc1`: the Kd in data set [1] is > 10 µM. Besides, in [2], the CC50 at 24 h was > 10 µM.
On to `COc1ccc(S(=O)(=O)N(CC(N)=O)c2ccc(N(CC(N)=O)S(=O)(=O)c3ccc([S+]([O-])CCOCCN=C=S)cc3)c3ccccc23)cc1` (centres undefined), for which, in data set [1], the Kd amounted to 3.08 µM. The CC50 at 24 h in data set [2] was > 10 µM.
In the same order, the values of `COc1ccc(S(=O)(=O)N(CC(N)=O)c2ccc(N(CC(N)=O)S(=O)(=O)c3ccc(SCCCCN=C=S)cc3)c3ccccc23)cc1` are > 10 µM and > 10 µM.
In [1], `COc1ccc(S(=O)(=O)N(CC(N)=O)c2ccc(N(CC(N)=O)S(=O)(=O)c3ccc([S+]([O-])CCCCN=C=S)cc3)c3ccccc23)cc1` (centres undefined) came in with a Kd of 1.27 µM. The CC50 at 24 h in data set [2] is > 10 µM.
In [1], `COc1ccc(S(=O)(=O)N(CC(N)=O)c2ccc(N(CC(N)=O)S(=O)(=O)c3ccc(S(=O)(=O)CCN=C=S)cc3)c3ccccc23)cc1` had an equilibrium dissociation constant (Kd) of 0.658 µM. Besides, the result in data set [4], in data set [5] and in [9] was Active. In data set [2], the CC50 at 24 h was > 10 µM.
